Test results as given in ChEMBL document CHEMBL1155463 (J Med Chem, 2010).
In brackets after ≈: the same amount, converted by molar mass.

Tests used:
physchem [1] = conditions: phosphate buffer, pH 9.9
Description: Thermodynamic solubility in 50 mM aqueous phosphate buffer of pH 9.9 at 22.5 degC by HPLC analysis

physchem [2] = test: physchem
Description: Ionization constant, pKa by spectrophotometry

physchem [3] = conditions: octanol/water, pH 7.4
physchem [4] = conditions: octanol/water
Description: Lipophilicity, log P of the compound

physchem [5] = conditions: aqueous solution, pH 1
Description: Chemical stability in aqueous solution at pH 1 after 2 hrs

Row | SMILES | solubility thermodynamic (physchem [1]) | pKa (physchem [2]) | logD (physchem [3]) | logP (physchem [4]) | remaining at 2 h (physchem [5])
1 | CN(C)CCCCc1ccc(C2(O)COC2)cc1 | 300 mM (≈ 74800 µg/mL) | 9.6 |  |  | 
2 | CN(C)CCCCc1ccc(C2(F)COC2)cc1 | 24 mM (≈ 6030 µg/mL) | 9.9 | -0.5 | 2 | 
3 | CN(C)CCCCc1ccc(C2COC2)cc1 | 17 mM (≈ 3970 µg/mL) | 9.9 | -0.1 | 2.4 | 83%
4 | CN(C)CCCCc1ccc(C(C)(C)C)cc1 | < 0.004 mM |  |  | 5 | 
5 | CN(C)CCCCc1ccc(C2(C)COC2)cc1 | 18 mM (≈ 4450 µg/mL) | 9.9 | 0.8 | 3.3 | 
6 | CN(C)CCC(C)(C)Cc1ccc(C(C)(C)C)cc1 |  | 9.5 |  |  | 
7 | CN(C)CCC1(Cc2ccc(C(C)(C)C)cc2)COC1 | 15 mM (≈ 4130 µg/mL) | 9.2 | 1.7 | 3.5 | 
8 | CN(C)CC(C)(C)CCc1ccc(C(C)(C)C)cc1 | 0.004 mM (≈ 1.05 µg/mL) |  |  |  | 
9 | c1cc2c(cc1CN1CCCCC1)OCO2 | 2.1 mM (≈ 460 µg/mL) | 9.6 |  |  | 
10 | CC1(C)CCCN1Cc1ccc2c(c1)OCO2 | 0.18 mM (≈ 42 µg/mL) | 10 | 0.9 | 3.5 | 
11 | CCc1ccc(CCCCN(C)C)cc1 | 0.25 mM (≈ 51.3 µg/mL) | 9.9 | 1.8 | 4.3 | 
12 | CN(C)CCCC(C)(C)c1ccc(C(C)(C)C)cc1 | < 0.004 mM |  |  |  | 
13 | c1cc2c(cc1CN1CCCC1)OCO2 | 2.8 mM (≈ 575 µg/mL) | 9.7 | 0.2 | 2.5 | 
14 | c1cc2c(cc1CN1CCC1)OCO2 | 13 mM (≈ 2490 µg/mL) | 9.5 | -0.1 | 2.1 | 
15 | O=C1CCCCN1Cc1ccc2c(c1)OCO2 | 27 mM (≈ 6300 µg/mL) |  | 1.6 | 1.6 | 
16 | c1cc2c(cc1CN1CCOCC1)OCO2 | 36 mM (≈ 7970 µg/mL) | 7 | 1.5 | 1.6 | 
17 | CN(C)C1(CCCc2ccc(C(C)(C)C)cc2)COC1 | 0.21 mM (≈ 57.8 µg/mL) | 7.2 | 3.3 | 3.6 | 
18 | CC1(C)CCN1Cc1ccc2c(c1)OCO2 | 1.7 mM (≈ 373 µg/mL) | 10.1 | 0.1 | 2.8 | 

Row | SMILES | solubility thermodynamic (physchem [1]) | pKa (physchem [2]) | logD (physchem [3]) | logP (physchem [4]) | remaining at 2 h (physchem [5])
19 | c1cc2c(cc1CN1CCC13COC3)OCO2 | 6 mM (≈ 1400 µg/mL) | 6.2 | 1.3 | 1.3 | 
20 | O=C1CCN1Cc1ccc2c(c1)OCO2 | 10 mM (≈ 2050 µg/mL) |  | 1.1 | 1.1 | 
21 | CC1(C)CN(Cc2ccc3c(c2)OCO3)C1 | 1.3 mM (≈ 285 µg/mL) | 9.6 | 0.8 | 3.1 | 
22 | c1cc2c(cc1CN1CC3(COC3)C1)OCO2 | 100 mM (≈ 23300 µg/mL) | 8 | 0.5 | 1.2 | 
23 | O=C1CCCN1Cc1ccc2c(c1)OCO2 | 6.8 mM (≈ 1490 µg/mL) |  | 1.2 | 1.2 | 
24 | CC1(C)CCN(Cc2ccc3c(c2)OCO3)C1 | 0.17 mM (≈ 39.7 µg/mL) | 9.7 | 1.4 | 3.7 | 
25 | c1cc2c(cc1CN1CCC3(COC3)C1)OCO2 | 3 mM (≈ 742 µg/mL) | 8.1 | 0.7 | 1.5 | 
26 | O=C1CCN(Cc2ccc3c(c2)OCO3)C1 | 19 mM (≈ 4170 µg/mL) | 6.1 | 0.1 | -0.1 | 
27 | CC1(C)CCCCN1Cc1ccc2c(c1)OCO2 | 0.12 mM (≈ 29.7 µg/mL) | 10.2 | 1.1 | 3.9 | 
28 | c1cc2c(cc1CN1CCCCC13COC3)OCO2 | 2.9 mM (≈ 758 µg/mL) | 7 | 2.2 | 2.4 | 
29 | CC1(C)CCCN(Cc2ccc3c(c2)OCO3)C1 | 0.053 mM (≈ 13.1 µg/mL) | 9.4 | 2.3 | 4.3 | 
30 | CN(C)CCCC1(c2ccc(C(C)(C)C)cc2)COC1 | 0.98 mM (≈ 270 µg/mL) | 9.6 | 1.7 | 3.9 | 
31 | c1cc2c(cc1CN1CCCC13COC3)OCO2 | 8.5 mM (≈ 2100 µg/mL) | 6.3 | 1.9 | 1.9 | 
32 | c1cc2c(cc1CN1CCCC3(COC3)C1)OCO2 | 7.7 mM (≈ 2010 µg/mL) | 7.9 | 1.7 | 2.3 | 
33 | O=C1CCCN(Cc2ccc3c(c2)OCO3)C1 | 9 mM (≈ 2100 µg/mL) | 7.6 | 0.1 | 0.5 | 
34 | CC1(C)CCN(Cc2ccc3c(c2)OCO3)CC1 | 0.89 mM (≈ 220 µg/mL) | 9.5 | 2.3 | 4.4 | 
35 | c1cc2c(cc1CN1CCC3(CC1)COC3)OCO2 | 5.4 mM (≈ 1410 µg/mL) | 8.3 | 1 | 2 | 
36 | c1cc2c(cc1CN1CC3CC(C1)O3)OCO2 | > 11 mM | 7.1 |  |  | 
